Article PMC12036814 (Angewandte Chemie (International Ed. in English), 2025)
Like-named read-outs stand apart in the source and are kept apart here.

Columns and labels:
FAM171A2 = biological target: T1, FAM171A2 (Homo sapiens, UniProt A8MVW0); experiment: Thermal protein profiling (TPP) in intact HEK293 cells; assay type: cell-based; conditions: 1 h
T1 construct: endogenous in cells; host or cells: HEK293
Description: (§1) incubated in a thermoshaker (600 rpm, 16 h, 37 °C). The digest was stopped by adding 10 μL formic
(§2) acid (FA) and vortexing followed by centrifugation (12,000 ×g, 3 min, room temperature). 50 mg
(§3) SepPak C18 columns (Waters, Milford, USA, Cat# WAT054960) were equilibrated by gravity flow two
(§4) times with 1 mL acetonitrile and three times with 1 mL aqueous 0.1% trifluoroacetic acid (TFA) solution.
(§5) Subsequently, the samples were loaded by gravity flow, washed three times with 1 mL aqueous 0.1%
(§6) TFA solution and once with 0.5 mL aqueous 0.5% formic acid (F A) solution. Elution of peptides into
(§7) new 2.0 mL Protein LoBind Eppendorf tubes was performed by two times addition of 250 μL elution
(§8) buffer (80% acetonitrile, 0.5% FA) by gravity flow followed by 250 μL elution buffer by vacuum flow
(§9) until all liquid was eluted from the column. The eluates were lyophilized. Before MS measurement the
(§10) (brief centrifugation after each step).
(§11) Thermal protein profiling (TPP)
(§12) The experiment was performed similarly to TPP-TR experiments described by Franken et al. with minor
(§13) modifications.5 HEK293 cells were grown in 8 T175 flasks to approx. 80-90% confluency. Per replicate
(§14) volume of 0.1 N HCl as vehicle control. Per condition two replicates were used, leading to a total of 8
(§15) T175 flasks. The cells were washed with PBS, detached with accutase, the two flask per replicate
(§16) condition combined and the cells pelletized (500 ×g, 3 min, r.t.). The medium was removed and each
(§17) pellet (Cipro #1, Cipro #2, Ctrl. #1, Ctrl #2) washed twice with cold PBS. Each pellet was resuspended
(§18) depending on the sample. The cell suspension of each sample was distributed into 10 PCR tubes
(§19) (100 µL per tube), resulting in 10 stripes á 4 tubes (2×2 conditions, 10 temperature points). The PCR
(§20) tubes were subjected to the temperature gradient using a PCR cycler.
(§21) limitations, two separate programs had to be run to cover the desired temperature range (see
(§22) Table S4). The PCR tubes were heat-treated according to the two programs for 3 min and directly snap
(§23) frozen in liquid nitrogen.
(§24) manufacturer instructions.

MAIP1 = biological target: T2, MAIP1 (Homo sapiens, UniProt Q8WWC4); experiment: as above; assay type: cell-based; conditions: 1 h
T2 construct: endogenous in cells; host or cells: HEK293
T2 sequence (Q8WWC4 97-291): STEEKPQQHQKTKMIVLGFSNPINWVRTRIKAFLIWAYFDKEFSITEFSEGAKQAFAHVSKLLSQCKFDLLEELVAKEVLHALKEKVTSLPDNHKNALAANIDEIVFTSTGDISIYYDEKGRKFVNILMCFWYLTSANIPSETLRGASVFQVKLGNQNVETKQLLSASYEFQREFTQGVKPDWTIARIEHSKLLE
Description: as §1, §2, §3, §4, §5, §6, §7, §8, §9, §10, §11, §12, §13, §14, §15, §16, §17, §18, §19, §20, §21, §22, §23, §24

SCARB1 = biological target: T3, SCARB1 (Homo sapiens, UniProt Q8WTV0); experiment: Microscale thermophoresis (MST) binding; conditions: aggregation/precipitation at high compound concentrations
T3 construct: purchased Hölzel Biotech SC1-H82E5
T3 sequence (Q8WTV0 1-552): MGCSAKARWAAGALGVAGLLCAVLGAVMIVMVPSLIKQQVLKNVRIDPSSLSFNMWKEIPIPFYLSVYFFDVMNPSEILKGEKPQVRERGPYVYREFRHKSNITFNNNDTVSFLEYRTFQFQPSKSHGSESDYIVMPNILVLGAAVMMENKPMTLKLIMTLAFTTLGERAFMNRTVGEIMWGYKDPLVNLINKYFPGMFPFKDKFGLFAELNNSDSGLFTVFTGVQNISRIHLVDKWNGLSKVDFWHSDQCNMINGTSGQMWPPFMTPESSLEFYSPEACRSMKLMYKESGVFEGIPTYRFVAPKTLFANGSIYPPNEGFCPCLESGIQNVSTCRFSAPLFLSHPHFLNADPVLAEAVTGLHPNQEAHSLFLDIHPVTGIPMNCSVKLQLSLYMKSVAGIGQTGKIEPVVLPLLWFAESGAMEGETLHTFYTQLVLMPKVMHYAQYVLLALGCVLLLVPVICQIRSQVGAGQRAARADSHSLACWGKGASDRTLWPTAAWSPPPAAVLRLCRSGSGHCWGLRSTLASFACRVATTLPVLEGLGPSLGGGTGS
Description: reaction was terminated by addition of 800 μL EtOAc+0.5% AcOH, 300 μL H2O and 100 μL internal standard (13,14-dihydro-15-ketoprostaglandin -d4, 300 pmol/sample, Cayman Chemical, Ann Arbor, USA, Cat# 10010606). Of the organic phase 600 μL was transferred into a fresh Eppendorf tube and the solvent removed in a SpeedVac. The residue was dissolved in 100 μL acetonitrile/ H2O (1:1) and measured with LC-MS/MS. Gradient: Solvent A = H2O + 0.1% formic acid, solvent B = acetonitrile + 0.5% formic acid, flow rate = 0 .4 mL/min, run length 6 min, gradient = 0 min 30% B, 1 min 30% B, 2 min 31.5% B, 2.1 min 95% B, 4 min 95% B, 4.1 min 30% B, 6 min 30% B. MS settings: Capillary = 3.0 kV, sampling cone = […], extraction cone […], source temperature = 100 °C, desolvat ion temperature = 350 °C, cone gas flow = 50.0 L/h, desolvation gas flow = 650.0 L/h, scan time = 0.250 s, inter-scan time = 0.020 s, mass range = 100 -800 Da. Masses of 15 -ketoprostaglandin (349.2 Da, collision energy = 21.0 eV), 13,14 -dihydro-15-ketoprostaglandin (351.2 Da, collision energy = 18.0 eV) and 13,14-dihydro-15-ketoprostaglandin (355.2 Da, collision energy = 10.0 eV) were set for MRM. The areas under the curve (AUC) were used to quantify 15 -keto-PGE2 and 13,14 -dihydro-15-keto-PGE2 levels by determining peak areas in relation to internal standard […]. The experiment was […]
Microscale thermophoresis (MST) was performed as follows: Monolith His -Tag Labeling Kit RED -tris-NTA 2nd Generation (NanoTemper Technologies, Munich, Germany, Cat# MO -L018) was used for KD determination as recommended by the purchaser. Briefly, SCARB1 ( Hölzel Biotech, Cologne, Germany, Cat# SC1-H82E5) concentration (50 nM) was adjusted in assay buffer and labelled by the RED -tris-NTA dye (100 nM). This mixture was added to compound dilution series (c = 1 mM to 30 nM) and measured using Monolith NT.115 (NanoTemper Technologies, Munich, Germany ). The experiment was performed once and analysed with the MO Affinity Analysis software (NanoTemper).
NUDT1 target validation efforts:
Recombinant NUDT1 expression & purification […]

[1] = system: IDH2 mRNA in PDL-hTERT cells; experiment: Quantitative PCR of IDH2 mRNA; assay type: cell-based, human; design: dose or concentration left out as unconfirmed; conditions: […] µM, GAPDH housekeeper

Which results are given for `O=C(O)c1cn(C2CC2)c2cc(N3CCNCC3)c(F)cc2c1=O` [Ciprofloxacin]?
ΔTm at 70 µM (FAM171A2; read-out: ΔTm Rep. 1): 5.82 °C; ΔTm at 70 µM (FAM171A2; read-out: ΔTm Rep. 2): 3.92 °C; ΔTm at 70 µM (MAIP1; read-out: ΔTm Rep. 1): 2.28 °C; ΔTm at 70 µM (MAIP1; read-out: ΔTm Rep. 2): 3.73 °C; binding to SCARB1 (SCARB1): no binding affinity could be determined; IDH2 mRNA levels versus vehicle control [1]: not significantly changed
